The values below come from patent US20220031713A1, “METHODS OF TREATING MYELOPROLIFERATIVE DISORDERS” (Impact Biomedicines, Inc., priority 2018, published 2022).

One series has as its system JAK2 signaling. The series can be described thus: Cellular assay of JAK2 signaling. In kind it is cell-based. As to conditions: cellular assays.
Series [1] deals with cells expressing constitutively active JAK2. Nature of the series: Apoptosis in cells expressing constitutively active JAK2. As to conditions: cellular assays. In kind it is cell-based.
The subject of series [2] is JAK2V617F. As to conditions: MF patients; cited from earlier work.
Series [3] relates to intermediate-1 with symptoms, intermediate-2 or high-risk MPN-associated myelofibrosis. Conditions: cited from earlier work.
Series [4] concerns intermediate-2 or high-risk MF. Conditions: cited from earlier work.
Series [5] has as its system cellular proliferation driven by mutant JAK2 or mutant MPL. The series can be described thus: Cellular proliferation driven by mutant JAK2 or mutant MPL. In kind it is cell-based. As to conditions: cellular assays.
Series [6] relates to hematopoietic progenitors isolated from myeloproliferative neoplasm (MPN) patients. The series can be described thus: Erythroid colony formation of hematopoietic progenitors. In kind it is cell-based, human.
The test system of series [7] is graft-versus-host disease (GVHD). Conditions: cited from earlier work.
Series [8] concerns PD-L1 expression in lymphoma tumor cells. As to conditions: cited from earlier work.
Series [9] concerns JAK2V617F. As to conditions: non-clinical models of MF; cited from earlier work.
The test system of another series is circulating cytokines. Conditions: MF patients not previously treated with JAK inhibitors; cited from earlier work.
The subject of a further series is T cell development. Conditions: non-clinical data; cited from earlier work.
The test system of another series is MF. Conditions: week 24; previous ruxolitinib treatment; cited from earlier work.
The subject of series [10] is myelofibrosis. As to conditions: week 24, subgroup with prior ruxolitinib, cited from earlier work.
For series [11], the system named is myelofibrosis. As to conditions: cited from earlier work.
Series [12] deals with intermediate or high-risk MPN-associated myelofibrosis (MF). Conditions: at 24 weeks, COMFORT-I; cited from earlier work.
Series [13] shares this test system. As to conditions: cited from earlier work.
Series [14] has as its system PD-L1 expression in MPN myeloid cells. As to conditions: cited from earlier work.
Series [15] has as its system MPN-associated myelofibrosis. As to conditions: cited from earlier work.
The subject of another series is bone marrow fibrosis. Conditions: at 24 months; cited from earlier work.
[16] abbreviates: patients previously treated with ruxolitinib.
Setting [17] is: ruxolitinib therapy, compared with BAT.

Structures are written as SMILES. Read-outs that look alike come from different tables or passages of the source.

`Cc1cnc(Nc2ccc(OCCN3CCCC3)cc2)nc1Nc1cccc(S(=O)(=O)NC(C)(C)C)c1` [Compound I, fedratinib]: the “effect on JAK2 signaling” value in the series with JAK2 signaling was “inhibits JAK2 signaling”. Further, in series [1], the “apoptosis in cells expressing constitutively active JAK2” value is reported as “induces apoptosis”. In addition, in the series on JAK2V617F [2], the JAK2V617F frequency result is listed as “decrease JAK2V617F frequency”. Also, the “patients with at least 1 TEAE (all grades)” value in series [3] (97 patients) was 97 patients. In addition, in [3] (all grades), the TEAE anemia was 48.5%, the TEAE diarrhea is 61.9%, the TEAE nausea is listed as 55.7% and the TEAE thrombocytopenia is reported as 26.8%. Moreover, in series [3] (all grades), the TEAE vomiting was 41.2%. In addition, in series [3] (in vivo), the “Grade 3 or 4 anemia” value is “Thirty-eight and one-tenth”; the “Grade 3 or 4 thrombocytopenia” value is 21.6%; the “grade 5 hematologic TEAEs” value was “No grade 5 hematologic TEAEs were reported”; the “patients reporting Grade 3 or 4 TEAEs” value is on record as 62.9%. In [3] (setting [16]), the “overall spleen response rate (≥35% reduction from baseline in spleen volume to the End of Cycle 6)” value is reported as 55.4% and the “subjects achieving a ≥50% reduction in TSS” value is listed as 25.6%. Also, in series [4] (400 mg daily, all grades), the TEAE diarrhea is reported as 65.6%, the TEAE fatigue is on record as 15.6%, the TEAE nausea is on record as 63.5% and the TEAE peripheral edema is recorded as 15.6%. In series [4] (400 mg daily, all grades), the TEAE vomiting is recorded as 41.7%. In series [4] (400 mg daily), the “TEAE anemia (G3 and G4)” value is 42.7%; the “response rate at Cycle 6 as recommended by IWG-MRT (regardless of confirmation)” value is 46.9%; the “response rate per primary endpoint (≥35% reduction in spleen volume to End of Cycle 6, confirmed 4 weeks later by MRI)” value is 36.5%. For the same compound, in [4] (400 mg), the “TEAEs leading to permanent treatment discontinuation” value is 27.1%, the “subjects achieving a ≥50% reduction in TSS” value is listed as 36.3%, the “subjects reporting Grade 3 or 4 TEAEs” value is 70.8% and the “treatment-emergent serious adverse events (SAEs)” value is given as 38.5%. For the same compound, in series [4] (500 mg daily), the “response rate at Cycle 6 as recommended by IWG-MRT (regardless of confirmation)” value is 49.5% and the “response rate per primary endpoint (≥35% reduction in spleen volume to End of Cycle 6, confirmed 4 weeks later by MRI)” value is listed as 40.2%. In addition, in series [4] (500 mg), the “TEAEs leading to permanent treatment discontinuation” value is listed as 36.1%, the “subjects achieving a ≥50% reduction in TSS” value is recorded as 34.1%, the “subjects reporting Grade 3 or 4 TEAEs” value is 78.4% and the “treatment-emergent serious adverse events (SAEs)” value is 44.3%. The “median duration of response (≥35% reduction in spleen volume)” value in series [4] (responders from both active groups (400-mg and 500-mg)) was 10.4 months. In [5], the “effect on cellular proliferation driven by mutant JAK2 or mutant MPL” value is “inhibits”. The “erythroid colony formation of hematopoietic progenitors” value in series [6] is listed as “inhibits erythroid colony formation”. Further, the “effect on GVHD” value in series [7] (non-clinical data) is on record as “weak effect”. Besides, the “effect on PD-L1 expression” value in [8] is given as “modulate PD-L1 expression”. Moreover, the JAK2V617F frequency entry with JAK2V617F [9] is “decrease JAK2V617F frequency”. The “effect on circulating cytokines” value in the series with circulating cytokines is “modulate circulating cytokines”. The “effect on T cell development” value in the series on T cell development is on record as “weak effect”.
As to `N#CCNC(=O)c1ccc(-c2ccnc(Nc3ccc(N4CCOCC4)cc3)n2)cc1` [momelotinib], the “subjects with spleen volume response of 35% or more” value in the series with MF was 7%.
As for `C1=C/COCc2cc(ccc2OCCN2CCCC2)Nc2nccc(n2)-c2cccc(c2)COC/1` [pacritinib], the “subjects with spleen volume response of 35% or more” value with myelofibrosis [10] (200 mg twice daily) is 13%; with myelofibrosis [10] (400 mg once daily), 6%.
Consider `N#CC[C@H](C1CCCC1)n1cc(-c2ncnc3[nH]ccc23)cn1` [ruxolitinib, (3R)-3-cyclopentyl-3-[4-(7H-pyrrolo[2,3-d]pyrimidin-4-yl)pyrazol-1-yl]propanenitrile], for which the “median survival of relapsed and refractory patients who discontinued ruxolitinib” value in the series with myelofibrosis [11] (after ruxolitinib discontinuation) is listed as 6 months. Besides, the patients remaining alive in the series on myelofibrosis [11] (median follow-up of 10 months from stopping ruxolitinib) is on record as 34%. In addition, in [12], the “proportion of subjects exhibiting a ≥35% reduction in spleen volume as measured by MRI” value is on record as 41.9% and the “subjects with >50% improvement in MFSAF Total Symptom Score (TSS)” value is 45.9%. Also, the “proportion of subjects exhibiting a ≥35% reduction in spleen volume as measured by MRI” value in [13] (at 48 weeks, COMFORT-II) is 28.5%. In series [13] (at 144 weeks, COMFORT-II 3-year follow-up), the “Kaplan-Meier estimated probability of survival” value was 81%. The “effect on PD-L1 expression” value in [14] is on record as “modulate PD-L1 expression”. For the same compound, the “effect on graft-versus-host disease (GVHD)” value in series [7] (preclinical and clinical data) is recorded as “suppressing graft-versus-host disease”. Also, the “time after therapy initiation within which responses are typically observed” value in series [15] (in vivo) was 3-6 months. Moreover, in [15] (setting [17]), the treatment-associated anemia was 40.4% and the treatment-associated thrombocytopenia was 44.5%. The “subjects with improvement in bone marrow fibrosis” value in the series on bone marrow fibrosis is 15%.
